Measurements as given in patent US20190358264A1, “METHODS OF TREATING DISEASES ASSOCIATED WITH ILC2 CELLS” (Limm Therapeutics, SA, priority 2016, published 2019).

Assays:
[1] = tested on: intestine and lung-derived ILC2s; test: In vitro activation of purified ILC2s with NmU23, type 2 cytokine mRNA by quantitative RT-PCR; type: cell-based, mouse
Procedure: For in vitro experiments, purified lung and small intestine lamina propria ILC2s were FBS starved for 2 hours prior to stimulation and cultured in complete RPMI (supplemented with 10% foetal bovine serum (FBS), 1% hepes, sodium pyruvate, glutamine, streptomycin and penicillin) at 37° C. For mRNA analysis, ILC2s were stimulated overnight with recombinant mouse Neuromedin U 23 peptide (NmU23, 100 ng/mL; Phoenix pharmaceuticals). Both NmU23-stimulated and control ILC2s were cultured in the presence of IL-2 and IL-7 (10 ng/mL; Peprotech). ILC2s were lysed using RLT buffer (Qiagen). For cytokine protein analysis, ILC2s were incubated exclusively with brefeldin A (eBioscience) for 12 hours prior to intracellular staining. For in vivo experiments, B6 mice were injected intraperitoneal with NmU23 peptide (2 g/day) during Nippostrongylus brasiliensis infection or with a single dose of NmU23 (20 μg) and analyzed after 8 hours. Control mice were treated with PBS alone. Total RNA was extracted using RNeasy micro kit (Qiagen) according to the manufacturer's protocol. RNA concentration was determined using Nanodrop Spectrophotometer (Nanodrop Technologies). Quantitative real-time RT-PCR was performed as previously described^5,8. Hprt1, Gapdh and Eef1a1 were used as housekeeping genes. For TaqMan assays (Applied Biosystems) RNA was retro-transcribed using a High Capacity RNA-to-cDNA Kit (Applied Biosystems), followed by a pre-amplification PCR using TaqMan PreAmp Master Mix (Applied Biosystems). TaqMan Gene Expression Master Mix (Applied Biosystems) was used in real-time PCR. TaqMan Gene Expression Assays (Applied Biosystems) were the following: Hprt1 Mm00446968_m1; Gapdh Mm99999915_g 1; Eef1a1 Mm01973893_g 1; Il5 Mm00439646_m1; Il13 Mm00434204_m1; Areg Mm01354339_m1; 114 Mm00445259_m1; Csf2 Mm01290062_m1; Gata3 Mm00484683_m1; Rora Mm01173766_m1; Nmu Mm00479868_m1; Nmur1 Mm04207994_m1. Real-time PCR analysis was performed using StepOne Real-Time PCR system (Applied Biosystems).

[2] = tested on: intestine ILC2; test: Ki67 expression in intestine ILC2 after in vivo administration of NmU23; set-up: species or system mouse; settings: NmU23 4 g/day during 2 days (FIG. 10b)
Procedure: FIGS. 10a-10d: FIG. 10a, Ki67 expression in intestinal ILC2s after an overnight in vitro stimulation with NmU23 alone (100 ng/mL, Phoenix Pharmaceutical) or NmU23 together with the survival cytokines Interleukin (IL)-2 and/or IL-7 (10 ng/mL). FIG. 10b, Ki67 expression in intestine ILC2 after in vivo administration of NmU23 (4 g/day during 2 days). n=5. FIG. 10c, ILC2-derived type 2 cytokines (IL-5, IL-13 and Amphiregulin (Areg)) in sorted intestine ILC2 after an overnight stimulation with NmU23, mouse recombinant IL-25 or IL-33 (R&D) (10, 50 and 100 ng/mL). Negative control: unstimulated ILC2, Positive control: ILC2 activated with phorbol 12-myristate 13-acetate (PMA, 50 ng/ml) plus ionomycin (500 ng/ml). n=3. FIG. 10d, Dot plots representative of the cytokine production with increasing dose of NmU23, rIL-25 and rIL-33. *P<0.05; **P<0.01; ***P<0.001; ****P<0.0001; ns not significant.

Which results are given for “recombinant mouse Neuromedin U 23 peptide (FKAEYQSPSVGQSKGYFLFRPRN; listed as Mus musculus) [NmU23, NMUR1 agonist neuropeptide, Phoenix pharmaceuticals]”?
innate Il5 and Il13 gene expression in intestinal ILC2 ([1]; NmU23 100 ng/mL in vitro (FIG. 9f)): immediate innate Il5 and Il13 upregulation; expression of type 2 cytokines genes Il5, Il13, Areg and Csf2 in ILC2s ([1]; NmU23 100 ng/mL overnight, with IL-2 and IL-7, intestine and lung ILC2s): prompt and very potent expression; expression of the master type 2 transcription factor Gata3 in ILC2s ([1]; NmU23 100 ng/mL overnight, intestine and lung ILC2s): increased expression; ILC2 proliferation as measured by Ki67, in vivo [2]: increased ILC2 proliferation
